From patent US20230322815A1, “NOVEL COMPOUNDS AND THERAPEUTIC USES THEREOF” (University of Huddersfield, priority 2020, published 2023)

Legend:
[1] = system: HCT116 p53^−/−; test: Chemosensitivity (MTT, 96 h continuous exposure); format: cell-based, human
Protocol: FIG. 7. Chemosensitivity response of a panel of human cancer and non-cancer cell lines to 96 h continuous exposure to self-assembling test compounds. a, The potency of compounds tested against cancer (HT-29, DLD-1, HCT116 p53^+/+ and […], PSN1, MiaPaCa2, BxPC3, A549, H460 and GBM1) and non-cancer cells (ARPE-19, MCF10A and NP1). Each value represents the mean IC50±standard deviation from a minimum of three independent experiments. b,c, The selectivity index (SI) for [L2Cu3]^6+ (b) and [L2Zn3]^6+ (c) for the indicated cancer cell lines; SI is defined as the mean IC50 against the particular non-cancer cell line model divided by the mean IC50 against the particular cancer cell line. […] As the SI value is calculated using the mean IC50 values, experimental error is not included in these figures. d,e, IC50 values for the clinically approved platinates (cisplatin, oxaliplatin and carboplatin) and [L2Mn3]^6+ and the corresponding SI results.
All cell lines used were maintained at low passage in antibiotic-free media and were obtained from ATCC (LGC Standards, Middlesex, UK) unless otherwise stated (Methods). HT29, DLD-1, HCT116 p53^+/+ and HCT116 p53^−/− are all colorectal adenocarcinoma cell lines derived from different individuals and harbor different combinations of oncogenic lesions (except for the HCT116 isogenic cancer cell clones that are genetically identical except for p53 status). PSN-1, BxPC-3 and MiaPaCa2 are pancreatic carcinoma cell lines and A549 and H460 are lung carcinoma cell lines. HT29, DLD-1, PSN-1, BxPC-3, A549 and H460 cell lines were cultured in RPMI-1640 growth media (Sigma) containing 2 mM L-glutamine, 1 mM sodium pyruvate and 10% fetal bovine serum (FBS). HCT116 (p53^+/+ and p53^−/−) and MiaPaCa2 cell lines were cultured in Dulbecco's Modified Eagle's Medium (Sigma), 2 mM L-glutamine and 10% FBS. The ARPE-19 retinal epithelial non-cancer cell line (Dunn et al., 1996) was cultured in DMEM/F12 media (Gibco), 2 mM L-glutamine, 1 mM sodium pyruvate and 10% FBS. The MCF10A non-cancerous human breast epithelial cell line was cultured in Minimal Essential Media Eagle (Sigma), 2 mM L-glutamine, 1 mM sodium pyruvate, 10% FBS and 1×non-essential amino acids (NEAA). NP1 and GBM1 cells were cultured on plasticware coated with poly-L-ornithine (5 μg/ml) and laminin (2.4 μg/ml) (Polson et al., 2018; Da Silva et al., 2019). […]
[L2M3]^6+ and all the other self-assembling complexes were freshly formed by adding DMSO to individual components mixing together by pipetting. […] Media and MTT were removed and formazan crystals were dissolved in 150 μl of DMSO and the absorbance of the resulting solution determined at 540 nm. […]

[2] = system: HCT116 p53^+/+ cancer cells; test: Autophagy (CYTO-ID staining, confocal); format: cell-based, human; details: 3.125 μM, 40 h
Protocol: FIG. 18. The effects of [L2Cu3]^6+, [L2Zn3]^6+ and [L2Mn3]^6+ on cellular vacuole formation and autophagy in the HCT116 p53^+/+ cancer cells. Representative confocal images are shown of HCT116 p53^+/+ cancer cells following 40 h treatment with vehicle control or 3.125 μM [L2Cu3]^6+, [L2Zn3]^6+, or [L2Mn3]^6+.
Autophagy studies: The effects of 3.125 μM [L2Cu3]^6+, [L2Zn3]^6+ and [L2Mn3]^6+ treatments (40 h) on the induction of cellular vacuoles and autophagy in the HCT116 p53^−/−, HCT116 p53^+/+ and ARPE19 cells are presented in FIGS. 17-19 with representative cell images shown. […] In the ARPE19 cells, levels of autophagy were low with all treatments and similar to basal levels in control-treated cells (FIG. 19).

For `[Zn+2].[Zn+2].[Zn+2].c1ccc(-c2csc(NCCN(CCNc3nc(-c4ccccn4)cs3)CCNc3nc(-c4ccccn4)cs3)n2)nc1.c1ccc(-c2csc(NCCN(CCNc3nc(-c4ccccn4)cs3)CCNc3nc(-c4ccccn4)cs3)n2)nc1` [[L2Zn3]^6+], the “selectivity index (IC50 non-cancer cells / IC50 cancer cells)” value ([1]; HCT116 p53^−/− compared to ARPE-19) was “over 2000”, the “selectivity index (IC50 non-cancer cells / IC50 cancer cells)” value ([1]; HCT116 p53^−/− compared to MCF10A) was “over 2000” and the IC50 ([1]; HCT116 p53^−/−, 96 h, MTT) was 70 ± 13 nM. For the same compound, the “fold more active towards HCT116 p53^−/− than HCT116 p53^+/+” value ([1]; based on 96 h IC50 values) was about 6 fold and the induction of autophagy [2] was “barely detectable”.
